This is an account of results in PubChem BioAssay (NCI).

Among the test systems are KM12 colon; TK-10 renal; T-47D breast; MOLT-4 leukemia; RXF 393 renal; ACHN renal; HCT-116 colon; NCI-H23 lung; HCT-15 colon; SF-268 CNS; UACC-257 melanoma; U251 CNS; MDA-MB-231 breast.
Test in all cases: inhibition of tumour cell growth, NCI panel, 48 h

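A five-concentration, 48-hour dose response in 96-well plates underlies each endpoint, interpolated linearly between surrounding concentrations. The concentration for full growth arrest is given as TGI.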

With `N#CC1=C(S)N(C2OC(CO)C(O)C(O)C2O)C(c2ccccc2)=CC1c1cccs1` (stereo not drawn), the TGI is 34.7 µM in the assay with KM12 colon; 48.2 µM with TK-10 renal; 65.7 µM in the assay with T-47D breast; more than 100 µM with MOLT-4 leukemia; 40 µM in the assay with RXF 393 renal; 40.8 µM with ACHN renal. The TGI with HCT-116 colon is 75.7 µM; in the assay on NCI-H23 lung, more than 100 µM; in the assay with HCT-15 colon, more than 100 µM; in the assay with SF-268 CNS, 63.8 µM; in the assay on UACC-257 melanoma, 40.8 µM; in the assay on U251 CNS, 51.4 µM. The compound also displayed a TGI in the assay on MDA-MB-231 breast of 63.5 µM.
Regarding `Nc1ncnc2c1cnn2COCC(O)CO` (stereo not drawn), the TGI with KM12 colon, in the assay on TK-10 renal, in the assay with T-47D breast, with MOLT-4 leukemia, in the assay with RXF 393 renal and with ACHN renal was more than 100 µM throughout. Further, the TGI in the assay on HCT-116 colon, in the assay on NCI-H23 lung, with HCT-15 colon, with SF-268 CNS, in the assay on UACC-257 melanoma and in the assay on U251 CNS was more than 100 µM throughout. Besides, the TGI in the assay with MDA-MB-231 breast is more than 100 µM.
For the compound `COc1cc2c3c(c1OC)C(=O)C(=O)C1=C3N(CCC1)CC2`, the TGI is 44.5 µM in the assay with KM12 colon; more than 100 µM in the assay on TK-10 renal; more than 100 µM with T-47D breast; 56.3 µM with MOLT-4 leukemia; more than 100 µM with RXF 393 renal; more than 100 µM in the assay on ACHN renal. For the same compound, the TGI in the assay with HCT-116 colon is 47.3 µM; in the assay with NCI-H23 lung, 86.3 µM; in the assay on HCT-15 colon, more than 100 µM; in the assay with SF-268 CNS, 92.1 µM; in the assay on UACC-257 melanoma it was 67 µM; in the assay with U251 CNS it was more than 100 µM. Also, the TGI in the assay with MDA-MB-231 breast is more than 100 µM.
On to `COc1ccc2c(c1)OC1c3ccccc3OCC21` (stereo not drawn), for which the TGI in the assay on KM12 colon was more than 100 µM; in the assay with TK-10 renal, more than 100 µM; with T-47D breast it was more than 100 µM; with MOLT-4 leukemia it was 81.9 µM; in the assay on RXF 393 renal, more than 100 µM; in the assay with ACHN renal it was more than 100 µM. Also, the TGI in the assay with HCT-116 colon, with NCI-H23 lung, in the assay on HCT-15 colon, with SF-268 CNS, with UACC-257 melanoma and in the assay with U251 CNS was more than 100 µM in each case. This compound also came in with a TGI in the assay on MDA-MB-231 breast of more than 100 µM.
As to `OC1(C2(c3ccc(Cl)cc3)CCCC2)c2ccccc2C2=NCCN21` (stereo not drawn), the TGI was determined as 36.3 µM with KM12 colon; 28.9 µM in the assay with TK-10 renal; 22 µM in the assay on T-47D breast; 32.2 µM in the assay on MOLT-4 leukemia; 9.51 µM in the assay on RXF 393 renal; 30.5 µM in the assay on ACHN renal. Besides, the TGI in the assay on HCT-116 colon was 24.4 µM; in the assay on NCI-H23 lung it was 36.1 µM; in the assay with HCT-15 colon it was 31 µM; in the assay with SF-268 CNS, 35.1 µM; in the assay on UACC-257 melanoma, 29.4 µM; in the assay with U251 CNS, 28.2 µM. For the same compound, in the assay on MDA-MB-231 breast, the TGI came to 29.6 µM.
As for `CC(C)C[C@H](NC(=O)CCc1cccc2ccccc12)B(O)O`, the TGI was 5.4 µM with KM12 colon; 12.4 µM in the assay on TK-10 renal; 4.23 µM in the assay with T-47D breast; 3.86 µM with MOLT-4 leukemia; 2.03 µM in the assay on RXF 393 renal; more than 100 µM with ACHN renal. The TGI with HCT-116 colon came out at 2.91 µM; in the assay with NCI-H23 lung, 7.81 µM; in the assay with HCT-15 colon, 9.01 µM; in the assay with SF-268 CNS it was 10.1 µM; in the assay with UACC-257 melanoma, 3.91 µM; in the assay on U251 CNS it was 19.6 µM. In the assay on MDA-MB-231 breast, this compound came in with a TGI of 15.2 µM.
`OC[C@@H](O)[C@H](O)[C@@H](O)/C=N/Nc1ccc(Cl)nn1`: the TGI in the assay with KM12 colon, with TK-10 renal, in the assay on T-47D breast, in the assay with MOLT-4 leukemia, in the assay on RXF 393 renal and in the assay on ACHN renal was more than 100 µM throughout. Moreover, the TGI in the assay with HCT-116 colon, in the assay with NCI-H23 lung, with HCT-15 colon, in the assay on SF-268 CNS, in the assay with UACC-257 melanoma and in the assay with U251 CNS was more than 100 µM in each case. The compound also displayed a TGI in the assay with MDA-MB-231 breast of more than 100 µM.
Regarding `COc1ccc(C(=O)N(Cc2cccnc2)C(=S)N(Cc2cccnc2)C(=O)c2ccc(OC)cc2)cc1`, the TGI in the assay on KM12 colon, in the assay with TK-10 renal, with T-47D breast, with MOLT-4 leukemia, in the assay with RXF 393 renal and in the assay on ACHN renal was more than 100 µM throughout. In addition, the TGI with HCT-116 colon, in the assay on NCI-H23 lung, in the assay on HCT-15 colon, with SF-268 CNS, in the assay on UACC-257 melanoma and with U251 CNS was more than 100 µM each time. The same compound came in with a TGI in the assay with MDA-MB-231 breast of more than 100 µM.
For the compound `C[C@H](CO)C1=CC(C#C[Si](C)(C)C)N(C(=O)Oc2ccccc2)c2ccccc21` (stereo partly drawn), the TGI in the assay with KM12 colon came out at 21.8 µM; in the assay with TK-10 renal it was 31.4 µM; in the assay with T-47D breast, 38.1 µM; in the assay on MOLT-4 leukemia, 44 µM; in the assay with RXF 393 renal, 23 µM; with ACHN renal, 26.8 µM. Also, the TGI in the assay on HCT-116 colon was 22.7 µM; in the assay with NCI-H23 lung, 15.1 µM; in the assay with HCT-15 colon, 9.71 µM; in the assay with SF-268 CNS it was 27.6 µM; with UACC-257 melanoma it was 28.3 µM; in the assay on U251 CNS it was 28 µM. In the assay on MDA-MB-231 breast, the TGI is 23.4 µM.
On to `COc1ccc2[nH]c3c(C)c4ncccc4c(C)c3c2c1`, for which the TGI is 3.87 µM in the assay with KM12 colon; more than 10 µM in the assay with TK-10 renal; more than 10 µM with T-47D breast; more than 10 µM in the assay on MOLT-4 leukemia; 9.39 µM in the assay with RXF 393 renal; more than 10 µM in the assay with ACHN renal. Also, the TGI in the assay on HCT-116 colon, in the assay on NCI-H23 lung, with HCT-15 colon, in the assay on SF-268 CNS, in the assay with UACC-257 melanoma and in the assay with U251 CNS was more than 10 µM in each case. Further, the TGI with MDA-MB-231 breast was more than 10 µM.
Consider `CCOC(=O)C(=O)C(/C(=N/N(C)C)C(=O)Nc1ccc(C)cc1C)c1nc2ccccc2[nH]c1=O` (stereo not drawn), for which the TGI in the assay on KM12 colon, in the assay on TK-10 renal, with T-47D breast, with MOLT-4 leukemia, with RXF 393 renal and in the assay on ACHN renal was more than 100 µM throughout. The TGI in the assay on HCT-116 colon, with NCI-H23 lung, in the assay with HCT-15 colon, in the assay with SF-268 CNS, in the assay on UACC-257 melanoma and in the assay with U251 CNS was more than 100 µM in each case. In the assay with MDA-MB-231 breast, the TGI was more than 100 µM.
